We go through 87 compounds from PubChem BioAssay AID652053 (Broad Institute, 2013).

In this test the test system is Huh7 psiCHECK-miR122 Renilla luciferase reporter, 48 h. As to the kind of experiment: miR-122 inhibitors in Huh7 reporter cells, dose response, cell-based, Huh7 psiCHECK-miR122, Renilla luciferase, cherry-pick (AID 652053).
For `COc1ccc(S(=O)(=O)Nc2ccc(S(=O)(=O)Nc3ccc(F)cc3)cc2)cc1C`, the AC40 was 14.5 µM. As for `COc1cccc(NS(=O)(=O)c2cc(C)ccc2OC)c1`, the AC40 is 1.53 µM.

As to `CC(=O)N1c2c(cc(Br)cc2S(=O)(=O)NCC2COc3ccccc3O2)CC1C` (configuration not stated), the AC40 was 4.53 µM. For the compound `Cc1ccc(C(=O)NCCSc2ccc(Cl)cc2)cc1S(=O)(=O)Nc1ccccc1`, the AC40 was 4.3 µM. The same measure for `CCN(CC)S(=O)(=O)c1cc(C(=O)N(C)CC(=O)Nc2ccc(Cl)cc2)ccc1Cl`: 13.9 µM; for `COc1ccc(S(=O)(=O)NCc2ccccn2)cc1NC(=O)c1ccccc1C`: 10.2 µM. Turning to `Cc1ccccc1OC1C(=O)N(Cc2ccc3c(c2)OCO3)C1c1sccc1C` (configuration not stated), the AC40 is 13.7 µM. With `C[C@H](CO)N1C[C@H](C)[C@@H](CN(C)Cc2ccc3c(c2)OCO3)Oc2c(NC(=O)C3CCCCC3)cccc2C1=O`, the AC40 was 5.43 µM. Regarding `O=S(=O)(Nc1cccc(-n2cnnn2)c1)c1cc(Br)ccc1Br`, the AC40 was 4.94 µM. As for `CCOC(=O)Nc1ccc(NS(=O)(=O)c2ccc(C)cc2)cc1`, the AC40 is 8.82 µM. In the case of `CCN(CC)S(=O)(=O)c1ccc(N2CCOCC2)c(NS(=O)(=O)c2ccc(C(C)C)cc2)c1`, the AC40 was 5.51 µM. With `C[C@H](CO)N1C[C@H](C)[C@H](CN(C)Cc2ccc(C(=O)Nc3ccccc3N)cc2)Oc2ccc(NC(=O)Nc3ccccc3)cc2CC1=O`, the AC40 was 5.91 µM.

Take `C[C@@H]1CN([C@@H](C)CO)C(=O)c2cc(NC(=O)Nc3ccccc3)ccc2O[C@@H]1CN(C)Cc1ccc(C(=O)Nc2ccccc2N)cc1`: the AC40 is 13.4 µM. With `S=C(Nc1ccc(Cl)c(Cl)c1)NC1CCCCC1`, the AC40 is 1.37 µM. With `CCOC(=O)/C(=N/Nc1ccc(Cl)cc1)S(=O)(=O)c1ccccc1`, the AC40 was 3.28 µM. For the compound `COc1ccc(C)cc1S(=O)(=O)NC1CCCCC1`, the AC40 is 1.31 µM.

Consider `C[C@H](CO)N1C[C@H](C)[C@H](CN(C)Cc2ccc(C(=O)Nc3ccccc3N)cc2)Oc2ccc(NC(=O)Nc3cccc4ccccc34)cc2CC1=O`, for which the AC40 is 16.9 µM.

Turning to `CC(C)c1ccc(NC(=S)NCc2cccs2)cc1`, the AC40 was 2.8 µM. With `Cc1ccc(-c2cnc3c(c2)C(=O)N([C@H](C)CO)C[C@@H](C)[C@H](CN(C)Cc2ccccc2F)O3)cc1`, the AC40 is 2.64 µM.

Regarding `CN1CC(c2ccc(C#N)cc2)C2(COc3ccccc3C2=O)C12C(=O)Nc1ccccc12` (configuration not stated), the AC40 is 3.69 µM. On to `CCCNC(=O)NC[C@H]1[C@@H](c2ccc(C3=CCCC3)cc2)[C@@H](CO)N1C(=O)CC`, for which the AC40 is 10.2 µM. With `CCN(CC)C(=O)CC(c1ccc(N(C)C)cc1)c1c(OC)cc(OC)c2c(-c3ccccc3)cc(=O)oc12` (configuration not stated), the AC40 is 3 µM. In the case of `O=C(c1ccc(F)cc1)N1C[C@H]2[C@@H](c3ccccc31)[C@@H](CO)N2Cc1ccc2c(c1)OCO2`, the AC40 was 17.3 µM. Regarding `CCOc1cc(C)c(S(=O)(=O)Nc2ccc(F)cc2)cc1C`, the AC40 was 0.908 µM.

`Cc1cccc(NS(=O)(=O)c2ccc(C)c(C(=O)OCC(=O)Nc3cc(C)on3)c2)c1`: the AC40 was 4.46 µM.

Consider `Cc1cc(S(=O)(=O)Nc2ccc3ccccc3c2)c(C)s1`, for which the AC40 was 1.06 µM. On to `O=S(=O)(Nc1ccc(Cl)cc1)c1cccc2nsnc12`, for which the AC40 is 14.8 µM. On to `CC(=O)Nc1ccc(S(=O)(=O)Nc2ccc3c(c2)n(C)c(=O)n3C)c(C)c1`, for which the AC40 is 3.94 µM. On to `C[C@H](CO)N1C[C@H](C)[C@H](CN(C)Cc2ccc(Cl)c(Cl)c2)Oc2c(NC(=O)Nc3ccc4c(c3)OCO4)cccc2C1=O`, for which the AC40 is 4.58 µM. The same measure for `CC(=O)Nc1ccc(NS(=O)(=O)c2ccc3ccccc3c2)cc1`: 14.3 µM. In the case of `C[C@H](CO)N1C[C@H](C)[C@@H](CN(C)Cc2ccc(C(F)(F)F)cc2)Oc2c(cccc2N(C)C)C1=O`, the AC40 was 2.48 µM.

In the case of `COc1cc(S(=O)(=O)N(CCc2ccccc2)Cc2cccs2)ccc1-n1cnnn1`, the AC40 was 1.33 µM.

As for `C[C@H](CO)N1C[C@H](C)[C@H](CN(C)Cc2ccc3c(c2)OCO3)Oc2c(NC(=O)C3CCOCC3)cccc2C1=O`, the AC40 is 10.5 µM.

In the case of `Cc1ccc(S(=O)(=O)N2CC[C@@H]3[C@@H](CO)Nc4ccc(-c5ccccc5F)cc4[C@@H]32)cc1`, the AC40 is 1.69 µM. Take `CCc1c(C(=O)NC2CCCc3ccccc32)[nH]c(C)c1C(C)=O` (configuration not stated): the AC40 was 9 µM.

Turning to `Cc1ccc(S(=O)(=O)NCc2ccco2)c(C)c1C`, the AC40 is 1.79 µM. The same measure for `C[C@H]1CN([C@@H](C)CO)C(=O)c2cccc(NS(=O)(=O)c3ccccc3)c2O[C@@H]1CN(C)Cc1ccc(C(=O)Nc2ccccc2N)cc1`: 22 µM; for `C[C@H](CO)N1C[C@H](C)[C@@H](CN(C)Cc2ccc3c(c2)OCO3)Oc2c(NC(=O)NC3CCCCC3)cccc2C1=O`: 2.53 µM. Regarding `Cc1ccc(C)c(S(=O)(=O)NCC(c2ccc3c(c2)OCO3)N2CCOCC2)c1` (configuration not stated), the AC40 is 1.81 µM. In the case of `CCCCOc1ccc(S(=O)(=O)Nc2ccc(NC(C)=O)cc2)cc1`, the AC40 was 10.3 µM. The same measure for `Cc1cccc(S(=O)(=O)NC2CCCCCCC2)c1`: 3.27 µM. Turning to `C[C@@H]1CN([C@H](C)CO)C(=O)c2cccc(NS(C)(=O)=O)c2O[C@@H]1CN(C)Cc1ccc(C(F)(F)F)cc1`, the AC40 is 12.5 µM. As for `COc1ccc(NS(=O)(=O)c2cc(NC(=O)COc3ccc(OC)cc3)ccc2N2CCOCC2)cc1`, the AC40 was 2.62 µM. For the compound `COc1ccc(NS(=O)(=O)c2cc(NC(=O)c3cnccn3)ccc2N2CCCC2)cc1`, the AC40 is 3.27 µM. In the case of `CCCCOC(=O)NC1CCc2cc(OC)c(OC)c(OC)c2-c2ccc(SC)c(=O)cc21` (configuration not stated), the AC40 is 0.863 µM.

As to `Cc1ccccc1NS(=O)(=O)c1cc(C(=O)Nc2cccnc2)ccc1C`, the AC40 was 5.17 µM.

With `CC(NC(=O)COc1ccccc1)C(=O)OCC(=O)c1cc2ccccc2o1` (configuration not stated), the AC40 was 33.5 µM. As for `O=C(Cc1ccccc1)N1CC[C@@H]2[C@@H](CO)Nc3ccc(-c4cccc(F)c4)cc3[C@@H]21`, the AC40 is 7.15 µM. Regarding `CCOc1ccccc1N1CCN(C(=O)c2cccc(-c3ccc(O)cc3)c2)CC1`, the AC40 is 0.659 µM.

Turning to `CCOc1ccc(NS(=O)(=O)c2ccc(NC(=S)NC(=O)C(C)C)cc2)cc1`, the AC40 is 5.48 µM.

As to `Cc1cc(C)c(S(=O)(=O)NC(C)C)c(C)c1-n1cnnn1`, the AC40 was 1.3 µM.

Turning to `CCc1c(C(=O)NCc2ccccc2Cl)[nH]c(C)c1C(C)=O`, the AC40 is 1.38 µM. The same measure for `Oc1ccc(/C=N/NP(=S)(c2ccccc2)c2ccccc2)cc1`: 7.07 µM. For the compound `CC(=O)N1CCOc2ccc(S(=O)(=O)NCCc3ccc(Cl)cc3)cc21`, the AC40 was 5.14 µM. For the compound `COc1ccc(NS(=O)(=O)c2cc(C)ccc2OC)cc1OC`, the AC40 was 3.76 µM. Turning to `Cc1ccc(C2CC(c3cccs3)=NN2S(=O)(=O)c2ccc(C)cc2)cc1` (configuration not stated), the AC40 is 8.19 µM. Consider `Cc1cc(Cl)c(S(=O)(=O)NCc2ccccc2)cc1OCC(N)=O`, for which the AC40 is 8.54 µM. For the compound `Cc1c(C(=O)OC2CCCC2)[nH]c2c1C(=O)CC(c1ccco1)C2` (configuration not stated), the AC40 was 5.77 µM. As for `Cc1ccc(CN2CCSc3ccc(C(=O)NCc4ccco4)cc32)cc1`, the AC40 is 11.3 µM. Consider `C[C@H](CO)N1C[C@H](C)[C@@H](CN(C)Cc2ccc(C(=O)Nc3ccccc3N)cc2)Oc2c(NS(=O)(=O)c3ccccc3)cccc2C1=O`, for which the AC40 is 20.2 µM. Consider `C[C@@H]1CN([C@@H](C)CO)C(=O)c2cccc(NS(=O)(=O)c3ccc(F)cc3)c2O[C@@H]1CN(C)Cc1ccc(C(=O)Nc2ccccc2N)cc1`, for which the AC40 was 10.4 µM. Consider `CCN(CC)S(=O)(=O)c1ccc(NS(=O)(=O)c2ccc(C)c(C)c2)cc1`, for which the AC40 is 11.3 µM. As for `COc1ccc(C(C)(C)C)cc1S(=O)(=O)n1ccnc1C`, the AC40 is 4.82 µM. For the compound `COc1ccc(NS(=O)(=O)c2c(C)cc(C)cc2C)cc1`, the AC40 is 4.53 µM. Take `COc1cccc(CN(C(=O)Cc2c[nH]c3ccccc23)C(C(=O)NC2CCCCC2)c2cccs2)c1` (configuration not stated): the AC40 is 6.05 µM. As to `O=C(Nc1cccc(S(=O)(=O)Nc2ccc(Cl)cc2)c1)c1ccccn1`, the AC40 is 1.8 µM. For `Cc1ccc(-c2cnc(C3CC3)o2)cc1S(=O)(=O)Nc1ccccc1`, the AC40 is 3.08 µM. On to `O=C(NC1CCCC1)C(c1ccccc1F)N(C(=O)Cc1cccs1)c1ccc2c(c1)OCCO2` (configuration not stated), for which the AC40 was 25.9 µM. Regarding `C[C@H]1CN([C@@H](C)CO)C(=O)Cc2cc(NC(=O)Nc3ccc(C(F)(F)F)cc3)ccc2O[C@H]1CN(C)S(=O)(=O)c1ccc(F)cc1`, the AC40 was 14 µM. For the compound `COc1ccccc1CNS(=O)(=O)c1cc(-c2cc(C)no2)ccc1C(C)C`, the AC40 is 4.78 µM.

For `COc1ccc(NS(=O)(=O)c2ccc3ccccc3c2)c2ncccc12`, the AC40 is 5.19 µM. On to `Cc1ccc(S(=O)(=O)NCCC2=CCCCC2)cc1`, for which the AC40 is 5.27 µM.

With `COc1ccc(NS(=O)(=O)c2cc(NC(=O)Cc3c(F)cccc3Cl)ccc2OC)cc1`, the AC40 was 3.67 µM. For the compound `O=S(Cc1ccc(Cl)cc1)CC(O)(c1ccccc1)c1ccccc1` (configuration not stated), the AC40 is 18.1 µM. On to `C[C@@H]1CN([C@H](C)CO)C(=O)Cc2cc(N(C)C)ccc2O[C@H]1CN(C)Cc1ccc(C(=O)Nc2ccccc2N)cc1`, for which the AC40 is 10.3 µM. For the compound `O=S(=O)(NCCOCC(F)(F)C(F)F)c1ccc2oc3ccccc3c2c1`, the AC40 was 15.3 µM. Consider `C/C(=N\NC(=O)c1cccc(S(=O)(=O)Nc2cccc(Cl)c2)c1)c1cccs1`, for which the AC40 was 3.3 µM.

With `Cc1noc(C)c1NC(=O)Nc1cccc2c1O[C@H](CN(C)Cc1ccccc1)[C@@H](C)CN([C@H](C)CO)C2=O`, the AC40 was 7.74 µM. Next, `Cc1cc(C(O)c2ncc(-c3ccccc3F)[nH]2)ccc1F` (configuration not stated): 3.57 µM; `COc1cc(NS(=O)(=O)c2ccc(Br)s2)cc(OC)c1`: 5.31 µM. For `O=S(=O)(NCCc1ccncc1)c1ccc(Br)cc1`, the AC40 is 1.15 µM. Regarding `Cc1cc(Br)ccc1NC(=S)NCCc1ccccc1`, the AC40 is 9.65 µM. For the compound `OC(c1ccc(Cl)c(Cl)c1)c1ncc(-c2ccccc2F)[nH]1` (configuration not stated), the AC40 is 3.49 µM. `CC(C)(C)NS(=O)(=O)c1ccc2[nH]c3c(c2c1)CCCCC3`: the AC40 is 5.04 µM.

In the case of `C[C@@H]1CN([C@H](C)CO)C(=O)c2cccc(NC(=O)c3ccc(-c4nccs4)cc3)c2O[C@@H]1CN(C)Cc1ccc(C(=O)Nc2ccccc2N)cc1`, the AC40 is 6.24 µM. As for `Cc1ccc(NC(=O)CNC(=O)c2cccs2)cc1S(=O)(=O)Nc1ccc(Cl)cc1`, the AC40 was 3.31 µM. On to `c1ccc(CNc2nnnn2-c2ccccc2)cc1`, for which the AC40 was 17.1 µM.
